From patent US6737383B1, “Herbicidal oxadiazolidines” (priority 1999, dated 2004)

How the values were obtained:
corn = experiment: Test B pre/postemergence corn; format: in vivo, Zea mays
Procedure, shortened: (§1)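 Herbicidal effect was estimated by eye on a ten-point control scale after plants spent twelve to sixteen days in a greenhouse following soil or foliar treatment. Foliar sprays targeted plants at one to four leaves; all doses were formulated in a non-phytotoxic solvent with surfactant.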

rape = experiment: Test B pre/postemergence rape; format: in vivo, Brassica napus
Procedure, shortened: as §1

sugar beet = experiment: Test B pre/postemergence sugar beet; format: in vivo, Beta vulgaris
Procedure, shortened: as §1

duck salad = experiment: Test B flood test duck salad; format: in vivo, Heteranthera limosa
Procedure, shortened: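 Read-out is a visual response score from 0 (no effect) to 10 (complete control), assigned by comparison with untreated controls. Treatment was applied at the 2-leaf stage, and plants stayed in the greenhouse for twelve to sixteen days before scoring.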

pitted morningglory = experiment: Test D pitted morningglory; format: in vivo, Ipomoea lacunosa; conditions: Preemergence, 0 to 100 scale
Procedure, shortened: (§2)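 Values are visual plant-response ratings (0 no injury, 100 complete control) recorded 14 to 21 days after herbicide treatment, using a non-phytotoxic solvent mixture containing surfactant. Preemergence applications went to the surface of pots holding freshly sown seed in sandy loam.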

tall mallow = experiment: Test D tall mallow; format: in vivo, Malva sylvestris; conditions: Preemergence, 0 to 100 scale
Procedure, shortened: as §2

winter wheat [1] = experiment: Test E winter wheat; format: in vivo, Triticum aestivum; conditions: Postemergence; for Plant response rating, Wheat (winter): 0 to 100 scale
Procedure, shortened: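 Postemergence: 60:40 sandy loam/greenhouse potting mix, 1- to 4-leaf stage. Formulation: solvent plus surfactant. Assessment: visual comparison with untreated controls at ~21–28 days.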

blackgrass = experiment: Test E blackgrass; format: in vivo, Alopecurus myosuroides; conditions: Preemergence
green foxtail = experiment: Test E green foxtail; format: in vivo, Setaria viridis; conditions: Preemergence
Italian ryegrass = experiment: Test E Italian ryegrass; format: in vivo, Lolium multiflorum; conditions: Preemergence
winter wheat [2] = experiment: Test E winter wheat; format: in vivo, Triticum aestivum; conditions: Preemergence
wild oat = experiment: Test E wild oat; format: in vivo, Avena fatua; conditions: Preemergence
winter barley = experiment: Test E winter barley; format: in vivo, Hordeum vulgare; conditions: Preemergence
[3] = Postemergence, Rate 125 g/ha, scale of 0 to 10 where 0 is no effect and 10 is complete control
[4] = Preemergence, Rate 31 g/ha, visual rating, scale 0 to 10 (0 no effect, 10 complete control)
[5] = Preemergence, Rate 62 g/ha, scale 0 to 10 (0 no effect, 10 complete control)
[6] = Preemergence, Rate 125 g/ha, 0 is no effect, 10 is complete control
[7] = Preemergence, Rate 250 g/ha, scale 0 to 10, 0 is no effect, 10 is complete control
[8] = Preemergence, Rate 500 g/ha, scale 0 to 10 (0 no effect, 10 complete control)
[9] = Rate 31 g/ha, Postemergence, scale 0 to 10
[10] = Rate 62 g/ha, Postemergence, scale of 0 to 10 where 0 is no effect and 10 is complete control
[11] = Rate 250 g/ha, Postemergence, scale 0 to 10, 0 is no effect, 10 is complete control
[12] = Rate 500 g/ha, Postemergence, scale 0 to 10
[13] = Rate 16 g/ha, 0 no injury, 100 complete control
[14] = Rate 32 g/ha, 0 no injury, 100 complete control
[15] = Rate 64 g/ha, 0 no injury, 100 complete control
[16] = Rate 125 g/ha, 0 no injury, 100 complete control
[17] = Rate 31 g/ha, 0 to 100 scale, 0 no effect, 100 complete control
[18] = Rate 62 g/ha, 0 to 100 scale, 0 no effect, 100 complete control
[19] = Rate 125 g/ha, 0 to 100 scale (0 no effect, 100 complete control)
[20] = Rate 500 g/ha, 0 to 100 scale where 0 is no effect and 100 is complete control

C=CCn1c(=O)on(C(=O)N(c2ccc(F)cc2)C(C)C)c1=O [Compound 146]
Corn plant response rating (corn; [3]): 0
Corn plant response rating (corn; [4]): 0
Corn plant response rating (corn; [5]): 3
Corn plant response rating (0 to 10 scale) (corn; [6]): 5
Corn plant response rating (corn; [7]): 8
Corn plant response rating (corn; [8]): 9
Corn plant response rating (corn; [9]): 0
Corn plant response rating (corn; [10]): 0
Plant response rating, Corn (corn; [11]): 0
Corn plant response rating (corn; [12]): 0
Rape plant response rating (rape; [3]): 2
Rape plant response rating (rape; [4]): 0
Rape plant response rating (rape; [5]): 2
Rape plant response rating (0 to 10 scale) (rape; [6]): 10
Rape plant response rating (rape; [7]): 10
Rape plant response rating (rape; [8]): 10
Rape plant response rating (rape; [9]): 0
Rape plant response rating (rape; [10]): 2
Plant response rating, Rape (rape; [11]): 3
Rape plant response rating (rape; [12]): 5
Sugarbeets plant response rating (sugar beet; [3]): 3
Sugarbeets plant response rating (sugar beet; [4]): 5
Sugarbeets plant response rating (sugar beet; [5]): 8
Sugarbeets plant response rating (0 to 10 scale) (sugar beet; [6]): 9
Sugarbeets plant response rating (sugar beet; [7]): 10
Sugarbeets plant response rating (sugar beet; [8]): 10
Sugarbeets plant response rating (sugar beet; [10]): 1
Plant response rating, Sugarbeets (sugar beet; [11]): 4
Sugarbeets plant response rating (sugar beet; [12]): 6
Ducksalad plant response rating (duck salad; Postemergence (flood test species), Rate 125 g/ha, scale of 0 to 10 where 0 is no effect and 10 is complete control): 3
Ducksalad plant response rating (duck salad; Rate 31 g/ha, Postemergence section (flood test species), scale 0 to 10): 0
Ducksalad plant response rating (duck salad; Rate 62 g/ha, Postemergence section, flood test species, scale of 0 to 10 where 0 is no effect and 10 is complete control): 2
Ducksalad plant response rating (duck salad; Rate 62 g/ha, headed Pre-emergence (flood test species), scale 0 to 10 (0 no effect, 10 complete control)): 0
Ducksalad plant response rating (duck salad; Rate 125 g/ha, Pre-emergence, flood test species, scale 0 to 10 where 0 is no effect and 10 is complete control): 0
Plant response rating, Ducksalad (duck salad; Rate 250 g/ha, Postemergence (flood test), scale 0 to 10, 0 is no effect, 10 is complete control): 5
Ducksalad plant response rating (duck salad; Rate 250 g/ha, Pre-emergence, flood-test species, scale 0 to 10, 0 is no effect, 10 is complete control): 0
Plant response rating, Ducksalad (duck salad; Rate 500 g/ha, headed Pre-emergence (flood test species), scale 0 to 10 (0 no effect, 10 complete control)): 1
Ducksalad plant response rating (duck salad; Rate 500 g/ha, listed under Postemergence (flood test species), scale 0 to 10): 6
Plant response rating, P. morninglory (pitted morningglory; [13]): 0
Plant response rating, P. morninglory (pitted morningglory; [14]): 0
Plant response rating, P. morninglory (pitted morningglory; [15]): 0
Plant response rating, P. morninglory (pitted morningglory; [16]): 0
Plant response rating, P. morninglory (pitted morningglory; Rate 250 g/ha): 0
Plant response rating, P. morninglory (pitted morningglory; Rate 500 g/ha): 20
Plant response rating, Tall Mallow (tall mallow; [13]): 40
Plant response rating, Tall Mallow (tall mallow; [14]): 40
Tall Mallow plant response rating (tall mallow; [15]): 50
Tall Mallow plant response rating (tall mallow; [16]): 80
Plant response rating, Tall Mallow (tall mallow; Rate 250 g/ha): 90
Plant response rating, Tall Mallow (tall mallow; Rate 500 g/ha): 100
Plant response rating, Wheat (winter) (winter wheat [1]; Rate 31 g/ha, 0 no effect, 100 complete control): 30
Plant response rating, Wheat (winter) (winter wheat [1]; Rate 62 g/ha): 20
Plant response rating, Wheat (winter) (winter wheat [1]; Rate 125 g/ha): 40
Plant response rating, Wheat (winter) (winter wheat [1]; Rate 500 g/ha, 0 no effect, 100 complete control): 20
Wheat (winter) plant response rating (winter wheat [1]; Rate 250 g/ha, 0 to 100 scale where 0 is no effect and 100 is complete control): 60
Plant response rating, Blackgrass (blackgrass; [17]): 20
Plant response rating, Blackgrass (blackgrass; [18]): 70
Plant response rating, Blackgrass (blackgrass; [19]): 85
Blackgrass plant response rating (0 to 100 scale) (blackgrass; Rate 250 g/ha): 90
Plant response rating, Blackgrass (blackgrass; [20]): 70
Plant response rating, Green foxtail (green foxtail; [17]): 50
Plant response rating, Green foxtail (green foxtail; [18]): 55
Plant response rating, Green foxtail (green foxtail; [19]): 50
Green foxtail plant response rating (0 to 100 scale) (green foxtail; Rate 250 g/ha): 65
Plant response rating, Green foxtail (green foxtail; [20]): 100
Plant response rating, I. Ryegrass (Italian ryegrass; [17]): 50
Plant response rating, I. Ryegrass (Italian ryegrass; [18]): 40
Plant response rating, I. Ryegrass (Italian ryegrass; [19]): 50
I. Ryegrass plant response rating (0 to 100 scale) (Italian ryegrass; Rate 250 g/ha): 60
Plant response rating, I. Ryegrass (Italian ryegrass; [20]): 90
Plant response rating, Wheat (winter) (winter wheat [2]; [17]): 20
Plant response rating, Wheat (winter) (winter wheat [2]; [18]): 0
Plant response rating, Wheat (winter) (winter wheat [2]; [19]): 10
Wheat (winter) plant response rating (0 to 100 scale) (winter wheat [2]; Rate 250 g/ha): 0
Plant response rating, Wheat (winter) (winter wheat [2]; [20]): 100
Plant response rating, Wild oat (wild oat; [17]): 40
Plant response rating, Wild oat (wild oat; [18]): 25
Plant response rating, Wild oat (wild oat; [19]): 30
Wild oat plant response rating (0 to 100 scale) (wild oat; Rate 250 g/ha): 50
Plant response rating, Wild oat (wild oat; [20]): 85
Plant response rating, Barley (winter) (winter barley; [17]): 20
Plant response rating, Barley (winter) (winter barley; [18]): 10
Plant response rating, Barley (winter) (winter barley; [19]): 10
Barley (winter) plant response rating (0 to 100 scale) (winter barley; Rate 250 g/ha): 10
Plant response rating, Barley (winter) (winter barley; [20]): 95
